Measured values from patent US20060287248A1, “Asymmetric dosing methods” (Schering Corporation, priority 2005, published 2006).

Key:
melanoma A375 tumors = melanoma A375 tumors implanted into the left ventricle of the heart; cited from earlier work
HCV = assay: Viral load in HCV patients on regimens of compound of Formula Ia (reverse transcriptase PCR, FIG. 1); format: in vivo, human; settings: Patients with HCV, 200 mg BID, 400 mg BID, 400 mg TID
Description: FIG. 1 is a graph of mean viral load measured over time with administration of various doses and regimens of compound of Formula Ia; and
Studies of viral activity in HCV infected patients indicate that viral activity and resulting viral load are influenced by the circadian rhythm of the patient. […] Thus, in one aspect of the invention, the one or more discrete dosages are adjusted in amount to provide a highest dose or doses at a time or times corresponding to the time interval when hepatitis-C virus replication is highest.
Patients with HCV were put on various treatment regimens including 200 mg. BID, 400 mg. BID, and 400 mg. TID of a compound of Formula Ia, to determine efficacy of the regimens in reducing viral load. Blood samples were taken at predose and at 0.25, 0.5, 0.75, 1, 1.5, 2, 3, 4, 5, 6, 8, 10, 12, 18, 24, 36, 48, 72, 144 hr post dose using reverse transcriptase PCR methods.

[1] = Serum levels of compound Ia on day 14 in healthy subjects, BID vs TID regimen (FIG. 2); format: in vivo, human; settings: 400 mg TID; for serum/plasma level before the morning dose (time zero), 8 hours after the previous dose: healthy subjects, compared with 8 hours after the morning dose
Description: Healthy subjects were put on one of two regimens of 400 mg BID or 400 mg. TID of a compound of Formula Ia. Blood samples were taken on day 14 immediately prior to the morning dose (time zero) and at 12 hours post-dose (for the BID regimen) or 8 hours post-dose (for the TID regimen).

| Compound | distant bone metastasis to the femur and tibia (melanoma A375 tumors) | pattern of viral load decline over time (HCV) | pattern of viral load decline over time (HCV; listed as Formula la) | viral load as measured in serum (HCV; predose to 144 hr post dose) | plasma level 8 hours after the morning dose ([1]; compared with level before the morning dose) | serum/plasma level before the morning dose (time zero), 8 hours after the previous dose [1] | serum/plasma level before the morning dose (time zero), 8 hours after the previous dose ([1]; listed as formula la) |
| --- | --- | --- | --- | --- | --- | --- | --- |
| CN(C)C(=O)[C@H](Cc1ccccc1)NC(=O)[C@H]1O[C@@H]1C(=O)NCCc1ccccn1 [CLIK-148] | reduced distant bone metastasis | – | – | – | – | – | – |
| CC(C)(C)NC(=O)N[C@H](C(=O)N1C[C@H]2[C@@H]([C@H]1C(=O)NC(CC1CCC1)C(=O)C(N)=O)C2(C)C)C(C)(C)C (stereo partly drawn) [Formula Ia, (1R,5S)-N-[3-Amino-1-(Cyclobutylmethyl)-2,3-Dioxopropyl]-3-[2(S)-[[[(1,1-Dimethylethyl)Amino]Carbonyl]Amino]-3,3-Dimethyl-1-Oxobutyl]-6,6-Dimethyl-3-Azabicyclo[3.1.0]Hexan-2(S)-Carboxamide] | – | exhibited cyclical fluctuations corresponding to the patients' sleep/wake cycles | the decline in viral load is cyclical | declined with all regimens | much lower | significantly higher at time zero | highest in the morning |
